{"source": "paper PMC12148441", "about": "“The mechanism of peptidoglycan O-acetylation in Gram-negative bacteria typifies bacterial MBOAT-SGNH acyltransferases [drawing 1]” (The Journal of Biological Chemistry, 2025)", "biological_target": "T1, NgPatBΔ100 (Neisseria gonorrhoeae, UniProt Q5F966)", "T1 construct": "gene NGO_0533; SGNH domain (Δ100, N-terminal truncation), E. coli BL21(DE3), His-SUMO tag removed by Ulp1; catalytic Ser133, His305, Asp302", "T1 sequence (Q5F966 entry or part of it, stated change not applied)": "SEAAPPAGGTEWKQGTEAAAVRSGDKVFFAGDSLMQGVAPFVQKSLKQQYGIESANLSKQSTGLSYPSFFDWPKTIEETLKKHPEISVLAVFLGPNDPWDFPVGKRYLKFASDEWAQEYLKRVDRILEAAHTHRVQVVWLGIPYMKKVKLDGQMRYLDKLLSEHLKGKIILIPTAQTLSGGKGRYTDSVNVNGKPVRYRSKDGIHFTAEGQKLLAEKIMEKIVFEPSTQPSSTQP", "assay": "transacetylation of chitopentaose", "type": "biochemical", "conditions": "acetyl donor (1 mM acetyl-amino acids); chitopentaose acceptor; 50 mM sodium phosphate pH 7.0", "data": [{"smiles": "CC(=O)Oc1ccc(C[C@H](N)C(=O)O)cc1", "note": "[O-acetyl-Tyr]", "values": [{"measurement": "transacetylation of chitopentaose", "result": "O-acetyl-Tyr, but not O-acetyl-Ser, were sufficient for transacetylation of chitopentaose by NgPatB"}]}]}
